For test [1], the target named is T1, B1R receptor of the rat (rB1R) (Rattus norvegicus, UniProt P97583).
T1 construct: host or cells: CHO K1 cells
T1 sequence (P97583 1-337): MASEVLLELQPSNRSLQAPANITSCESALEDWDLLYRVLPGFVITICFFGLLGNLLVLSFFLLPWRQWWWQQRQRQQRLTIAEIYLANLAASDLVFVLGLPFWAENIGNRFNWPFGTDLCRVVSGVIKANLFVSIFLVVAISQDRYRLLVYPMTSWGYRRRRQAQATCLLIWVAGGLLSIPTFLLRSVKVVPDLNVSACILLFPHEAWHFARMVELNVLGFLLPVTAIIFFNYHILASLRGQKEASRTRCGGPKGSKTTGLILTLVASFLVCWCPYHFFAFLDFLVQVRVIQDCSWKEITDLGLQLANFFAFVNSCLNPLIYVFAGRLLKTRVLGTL
Kind of test: FLIPR Ca2+ assay on rB1R-transfected CHO K1 cells, antagonistic action. Conditions: CHO-K1, 10 μM test substance; agonist Des-Arg9-bradykinin 100 nM; % of maximum achievable inhibition; read-out: rB1R [10 μM] % inhibition. Type of test: cell-based.

For test [2], the target named is T2, human B1R receptor (hB1R) (Homo sapiens, UniProt P46663).
T2 construct: host or cells: CHO K1 cells
T2 sequence (P46663 1-353): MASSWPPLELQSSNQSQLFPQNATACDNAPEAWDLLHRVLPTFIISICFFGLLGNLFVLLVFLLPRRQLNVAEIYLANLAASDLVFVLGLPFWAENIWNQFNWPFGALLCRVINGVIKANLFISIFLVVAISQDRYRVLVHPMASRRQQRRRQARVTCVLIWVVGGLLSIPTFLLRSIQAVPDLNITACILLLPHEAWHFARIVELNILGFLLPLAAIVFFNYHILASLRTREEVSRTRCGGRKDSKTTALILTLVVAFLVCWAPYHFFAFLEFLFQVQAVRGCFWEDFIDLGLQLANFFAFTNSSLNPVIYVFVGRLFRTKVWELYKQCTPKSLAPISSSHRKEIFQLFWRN
Kind of test: FLIPR Ca2+ assay on hB1R-transfected CHO K1 cells, antagonistic action. In kind it is cell-based. Conditions: CHO-K1, 10 μM test substance; agonist Lys-Des-Arg9-bradykinin 0.5 nM; % of maximum achievable inhibition; read-out: hB1R [10 μM] % inhibition.

Usually inhibition stands for the change of the read-out against control, counted positive when it falls. Regarding `COc1cc(C)c(S(=O)(=O)N(C)CCOCC(=O)N2CCC(N)(c3ccccc3)CC2)c(C)c1` [Compound 196, N-(2-(2-(4-Amino-4-phenylpiperidin-1-yl)-2-oxoethoxy)ethyl)-4-methoxy-N,2,6-trimethylbenzenesulfonamide], the figures for the inhibition at 10 µM in test [1] and in test [2] were 100% and 103%, respectively.

For the compound `CN(CC1CCC(Cc2ccccc2)(N2CCCC2)CC1)C(=O)CC1CCCCN1S(=O)(=O)c1cccc(C(F)(F)F)c1` (stereo not drawn) [Compound 94, N-((4-benzyl-4-(pyrrolidin-1-yl)cyclohexyl)methyl)-N-methyl-2-(1-(3-(trifluoromethyl)phenylsulfonyl)piperidin-2-yl)acetamide], the results for the inhibition at 10 µM in test [1] and in test [2] were 93% and 64%, respectively.

In the case of `CN1CCN(C2(c3cccc(F)c3)CCN(C(=O)CC(NS(=O)(=O)c3ccc4ccccc4c3)c3ccccc3)CC2)CC1` (stereo not drawn) [Compound 120, N-(3-(4-(3-fluorophenyl)-4-(4-methylpiperazin-1-yl)piperidin-1-yl)-3-oxo-1-phenylpropyl)naphthalene-2-sulfonamide], the inhibition at 10 µM in test [1] was found to be 67%; in test [2] it was 97%.

As for `O=C(CC1CCCCN1S(=O)(=O)c1cccc(C(F)(F)F)c1)N1CCC(c2ccccc2)(N2CCN(c3ccncc3)CC2)CC1` (stereo not drawn) [Compound 113, 1-(4-phenyl-4-(4-(pyridin-4-yl)piperazin-1-yl)piperidin-1-yl)-2-(1-(3-(trifluoromethyl)phenylsulfonyl)piperidin-2-yl)ethanone], the values for the inhibition at 10 µM in test [1] and in test [2] were 74% and 79%, respectively.

Turning to `Cc1ccccc1CC1(N(C)C)CCC(NC(=O)CC2c3ccccc3CCN2S(=O)(=O)c2ccc(Cl)c(Cl)c2)CC1` (stereo not drawn) [Compound 12, 2-(2-(3,4-dichlorophenylsulfonyl)-1,2,3,4-tetrahydroisoquinolin-1-yl)-N-(4-(dimethylamino)-4-(2-methylbenzyl)cyclohexyl)acetamide], the inhibition at 10 µM in test [1] was determined as 88%; in test [2] it was 77%.

As for `COc1cc(C)c(S(=O)(=O)N(C)CCOCC(=O)N(C)CC2CCC(c3ccccc3)(N3CCCC3)CC2)c(C)c1` (stereo not drawn) [Compound 35, 2-(2-(4-methoxy-N,2,6-trimethylphenylsulfonamido)ethoxy)-N-methyl-N-((4-phenyl-4-(pyrrolidin-1-yl)cyclohexyl)methyl)acetamide], the results for the inhibition at 10 µM in test [1] and in test [2] were 101% and 102%, respectively.

Take `COc1cc(C)c(S(=O)(=O)N2CCCCC2COCC(=O)N(C)CCCC2CCC(CCc3ccccc3)(N3CCCC3)CC2)c(C)c1` (stereo not drawn) [Compound 59, 2-((1-(4-methoxy-2,6-dimethylphenylsulfonyl)piperidin-2-yl)methoxy)-N-methyl-N-(3-(4-phenethyl-4-(pyrrolidin-1-yl)cyclohexyl)propyl)acetamide]: the results for the inhibition at 10 µM in test [1] and in test [2] were 100% and 101%, respectively.

Consider `CN(CCCC1CCC(c2ccccc2)(N2CCCC2)CC1)C(=O)COCC1CCc2ccccc2N1S(=O)(=O)c1ccc(Cl)c(Cl)c1` (stereo not drawn) [Compound 133, 2-((1-(3,4-dichlorophenylsulfonyl)-1,2,3,4-tetrahydroquinolin-2-yl)methoxy)-N-methyl-N-(3-(4-phenyl-4-(pyrrolidin-1-yl)cyclohexyl)propyl)acetamide], for which the inhibition at 10 µM was determined as 42% in test [1] and 92% in test [2].

`CN1CCN(C2(c3ccc(F)cc3)CCN(C(=O)CC(NS(=O)(=O)c3ccc4ccccc4c3)c3ccccc3)CC2)CC1` (stereo not drawn) [Compound 96, N-(3-(4-(4-fluorophenyl)-4-(4-methylpiperazin-1-yl)piperidin-1-yl)-3-oxo-1-phenylpropyl)naphthalene-2-sulfonamide]: the inhibition at 10 µM in test [1] worked out at 91%; in test [2], 100%.

As for `Cc1cc(S(=O)(=O)N2CCCCC2CCC(=O)N(C)CC2CCC(c3ccccc3)(N3CCCC3)CC2)c(C)cc1Cl` (stereo not drawn) [Compound 140, 3-(1-(4-chloro-2,5-dimethylphenylsulfonyl)piperidin-2-yl)-N-methyl-N-((4-phenyl-4-(pyrrolidin-1-yl)cyclohexyl)methyl)propanamide], the figures for the inhibition at 10 µM in test [1] and in test [2] were 21% and 103%, respectively.

Regarding `CN(C)C1(CCc2ccccc2)CCC(NC(=O)CC2c3ccccc3CCN2S(=O)(=O)c2ccc(Cl)c(Cl)c2)CC1` (stereo not drawn) [Compound 1, 2-(2-(3,4-dichlorophenylsulfonyl)-1,2,3,4-tetrahydroisoquinolin-1-yl)-N-(4-(dimethylamino)-4-phenethylcyclohexyl)acetamide], the inhibition at 10 µM in test [1] came out at 105%; in test [2], 96%.

For the compound `COc1cc(C)c(S(=O)(=O)N(C)CCOCC(=O)NC2CCC(Cc3ccccc3)(N3CCOCC3)CC2)c(C)c1` (stereo not drawn) [Compound 171, N-(4-benzyl-4-morpholinocyclohexyl)-2-(2-(4-methoxy-N,2,6-trimethylphenylsulfonamido)ethoxy)acetamide], the inhibition at 10 µM came to 82% in test [1] and 75% in test [2].

For the compound `O=C(COCC1CCCCN1S(=O)(=O)c1c(Cl)cc(Cl)cc1Cl)NC1CCC(c2ccccc2)(N2CCCC2)CC1` (stereo not drawn) [Compound 142, N-(4-phenyl-4-(pyrrolidin-1-yl)cyclohexyl)-2-((1-(2,4,6-trichlorophenylsulfonyl)piperidin-2-yl)methoxy)acetamide], the results for the inhibition at 10 µM in test [1] and in test [2] were 113% and 92%, respectively.

`O=C(COCC1CCCN1S(=O)(=O)c1c(Cl)cc(Cl)cc1Cl)NC1CCC(c2ccccc2)(N2CCCC2)CC1` (stereo not drawn) [Compound 146, N-(4-phenyl-4-(pyrrolidin-1-yl)cyclohexyl)-2-((1-(2,4,6-trichlorophenylsulfonyl)pyrrolidin-2-yl)methoxy)acetamide]: the values for the inhibition at 10 µM in test [1] and in test [2] were 108% and 64%, respectively.

As to `CN(CCC1CCC(Cc2ccccc2)(N(C)C)CC1)C(=O)CC1CCCCN1S(=O)(=O)c1cccc(C(F)(F)F)c1` (stereo not drawn) [Compound 95, N-(2-(4-benzyl-4-(dimethylamino)cyclohexyl)ethyl)-N-methyl-2-(1-(3-(trifluoromethyl)phenylsulfonyl)piperidin-2-yl)acetamide], the values for the inhibition at 10 µM in test [1] and in test [2] were 93% and 99%, respectively.

For the compound `COc1cc(C)c(S(=O)(=O)N2CCCCC2COCC(=O)N2CCC(c3ccc(F)cc3)(N3CCN(C)CC3)CC2)c(C)c1` (stereo not drawn) [Compound 70, 1-(4-(4-fluorophenyl)-4-(4-methylpiperazin-1-yl)piperidin-1-yl)-2-((1-(4-methoxy-2,6-dimethylphenylsulfonyl)piperidin-2-yl)methoxy)ethanone], the values for the inhibition at 10 µM in test [1] and in test [2] were 99% and 104%, respectively.

As to `COc1cc(C)c(S(=O)(=O)N(C)CCOCC(=O)N2CCC(Cc3ccccc3)(N(C)C)CC2)c(C)c1` [Compound 63, N-(2-(2-(4-benzyl-4-(dimethylamino)piperidin-1-yl)-2-oxoethoxy)ethyl)-4-methoxy-N,2,6-trimethylbenzenesulfonamide], the inhibition at 10 µM in test [1] came to 100%; in test [2] it was 102%.

For the compound `COc1cc(C)c(S(=O)(=O)N(C)CCOCC(=O)N2CCC(Cc3ccccc3)(N3CCN(C)CC3)C2)c(C)c1` (stereo not drawn) [Compound 197, N-(2-(2-(3-benzyl-3-(4-methylpiperazin-1-yl)pyrrolidin-1-yl)-2-oxoethoxy)ethyl)-4-methoxy-N,2,6-trimethylbenzenesulfonamide], the inhibition at 10 µM in test [1] was determined as 99%; in test [2] it was 98%.

Turning to `Cc1cccc(Cl)c1S(=O)(=O)N1CCCCC1CCCC(=O)N1CCC(c2cccc(F)c2)(N2CCN(C)CC2)CC1` (stereo not drawn) [Compound 212, 4-(1-(2-Chloro-6-methylphenylsulfonyl)piperidin-2-yl)-1-(4-(3-fluorophenyl)-4-(4-methylpiperazin-1-yl)piperidin-1-yl)butan-1-one], the inhibition at 10 µM in test [1] and in test [2] was 100% throughout.

Consider `CN(CCOCC(=O)NC1CCC(Cc2ccccc2)(N2CCCC2)CC1)S(=O)(=O)c1ccc(Cl)cc1Cl` (stereo not drawn) [Compound 193, N-(4-benzyl-4-(pyrrolidin-1-yl)cyclohexyl)-2-(2-(2,4-dichloro-N-methylphenylsulfonamido)ethoxy)acetamide], for which the results for the inhibition at 10 µM in test [1] and in test [2] were 34% and 93%, respectively.

As for `COc1cc(C)c(S(=O)(=O)N(C)CCOCC(=O)NC2CCC(CCc3ccccc3)(N(C)C)CC2)c(C)c1` (stereo not drawn) [Compound 7, N-(4-(dimethylamino)-4-phenethylcyclohexyl)-2-(2-(4-methoxy-N,2,6-trimethylphenylsulfonamido)ethoxy)acetamide], the figures for the inhibition at 10 µM in test [1] and in test [2] were 100% and 103%, respectively.

(Values after patent publication US20090253669A1, “Substituted Sulfonamide Compounds” (GRUENENTHAL GmbH, priority 2008, published 2009).)
